We go through one compound from patent publication US20200115688A1, “COMPOSITIONS AND METHODS FOR ENHANCING GENOME EDITING” (The Regents of the University of California, priority 2017, published 2020).

For this assay, the system named is Neural progenitor cells with a tdTomato reporter gene. In words: Cas9 RNP genome editing in neural progenitor cells pretreated with Bafilomycin A1. The following applies: cells pretreated 1 hour before Cas9 RNPs added outside the cells; genomic DNA collected after 48 hours, target locus analyzed for Cas9-mediated targeted genomic deletions; FIG. 1. The assay is classed as cell-based. The method, then: Neural progenitor cells with a tdTomato reporter gene were pretreated with Bafilomycin A1 for 1 hour prior to addition of Cas9 RNPs outside of the cells. After 24 hours cells were washed 2× with Heparin to remove any remaining Cas9 RNP outside the cells. After 48 hours genomicDNA was collected and the target locus analyzed for Cas9-mediated targeted genomic deletions.

Each structure is given as a SMILES string.

In the case of `CO/C1=C\C(C)=C\[C@@H](C)[C@@H](O)[C@@H](C)C/C(C)=C/C=C/[C@H](OC)[C@@H]([C@@H](C)[C@@H](O)[C@H](C)[C@@]2(O)C[C@@H](O)[C@H](C)[C@@H](C(C)C)O2)OC1=O` [bafilomycin A1], the “editing efficiency of 0×NLS-Cas9-2×NLS” value is reported as “no effect” and the “editing efficiency of cell penetrating Cas9 RNP, 4×NLS-Cas9-2×NLS” value was “specifically increased”.
